Data published in ChEMBL document CHEMBL4002639, “DL-3-n-butylphthalide-Edaravone hybrids as novel dual inhibitors of amyloid-β aggregation and monoamine oxidases with high antioxidant potency for Alzheimer's therapy” (Bioorg Med Chem Lett, 2017).
Activity calls are given as the source filed them. The calls are words filed in the database; no cut-off is given here.

Experiments:
[1] = biological target: Amyloid-beta precursor protein (Homo sapiens) (UniProt P05067); experiment: Inhibition of self-induced Amyloid beta (1 to 42) (unknown origin) aggregation at 25 uM after 24 hrs by thioflavin T-based fluorometric assay relative to control
[2] = biological target: T1, Amine oxidase [flavin-containing] A (Homo sapiens, UniProt P21397); experiment: Inhibition of recombinant human MAO-A using kynuramine as substrate after 30 mins by fluorescence assay
T1 sequence (P21397 whole entry): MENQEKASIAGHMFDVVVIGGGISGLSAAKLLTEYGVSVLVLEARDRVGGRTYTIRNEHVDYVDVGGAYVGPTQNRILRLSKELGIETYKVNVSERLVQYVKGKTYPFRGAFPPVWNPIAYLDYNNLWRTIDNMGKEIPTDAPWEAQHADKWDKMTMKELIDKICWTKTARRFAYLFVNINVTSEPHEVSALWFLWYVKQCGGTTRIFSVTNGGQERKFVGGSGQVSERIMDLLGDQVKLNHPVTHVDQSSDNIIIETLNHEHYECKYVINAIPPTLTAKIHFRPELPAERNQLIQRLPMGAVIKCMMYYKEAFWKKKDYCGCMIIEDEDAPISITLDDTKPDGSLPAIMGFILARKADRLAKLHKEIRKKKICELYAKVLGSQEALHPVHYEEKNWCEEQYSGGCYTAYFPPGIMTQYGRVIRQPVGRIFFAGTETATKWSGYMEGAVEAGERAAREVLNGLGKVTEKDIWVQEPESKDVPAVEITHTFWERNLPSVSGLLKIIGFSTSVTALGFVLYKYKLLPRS

[3] = biological target: T2, Amine oxidase [flavin-containing] B (Homo sapiens, UniProt P27338)
T2 sequence (P27338 whole entry): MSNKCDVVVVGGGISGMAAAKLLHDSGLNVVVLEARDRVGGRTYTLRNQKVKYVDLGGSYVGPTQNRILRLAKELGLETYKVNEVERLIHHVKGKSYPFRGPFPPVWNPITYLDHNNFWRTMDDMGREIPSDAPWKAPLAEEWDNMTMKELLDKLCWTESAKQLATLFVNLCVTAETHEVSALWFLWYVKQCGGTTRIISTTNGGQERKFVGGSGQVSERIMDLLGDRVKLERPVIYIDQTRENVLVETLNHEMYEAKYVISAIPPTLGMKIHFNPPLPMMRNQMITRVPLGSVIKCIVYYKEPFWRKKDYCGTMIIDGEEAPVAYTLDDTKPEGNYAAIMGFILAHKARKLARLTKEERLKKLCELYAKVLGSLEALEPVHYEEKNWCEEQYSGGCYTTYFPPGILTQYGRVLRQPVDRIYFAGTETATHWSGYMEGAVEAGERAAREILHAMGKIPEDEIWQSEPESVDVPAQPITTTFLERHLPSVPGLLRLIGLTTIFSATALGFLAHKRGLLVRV
Description: Inhibition of recombinant human MAO-B using kynuramine as substrate after 30 mins by fluorescence assay

[4] = species on record: Homo sapiens; experiment: Selectivity index, ratio of IC50 for recombinant human MAO-A to IC50 for recombinant human MAO-B
[5] = Antioxidant activity assessed as trolox equivalent of AAPH radical scavenging activity at 1 uM preincubated for 15 mins followed by AAPH addition measured every min for 90 mins by ORAC-FL assay; type: functional
[6] = biological target: T2, Amine oxidase [flavin-containing] B; experiment: Inhibition of recombinant human MAO-B at 10 uM using kynuramine as substrate after 30 mins by fluorescence assay; details: 0.5 h
[7] = biological target: T1, Amine oxidase [flavin-containing] A; experiment: Inhibition of recombinant human MAO-A at 10 uM using kynuramine as substrate after 30 mins by fluorescence assay; details: 0.5 h

Sequence of Amyloid-beta precursor protein (Homo sapiens) (P05067 whole entry): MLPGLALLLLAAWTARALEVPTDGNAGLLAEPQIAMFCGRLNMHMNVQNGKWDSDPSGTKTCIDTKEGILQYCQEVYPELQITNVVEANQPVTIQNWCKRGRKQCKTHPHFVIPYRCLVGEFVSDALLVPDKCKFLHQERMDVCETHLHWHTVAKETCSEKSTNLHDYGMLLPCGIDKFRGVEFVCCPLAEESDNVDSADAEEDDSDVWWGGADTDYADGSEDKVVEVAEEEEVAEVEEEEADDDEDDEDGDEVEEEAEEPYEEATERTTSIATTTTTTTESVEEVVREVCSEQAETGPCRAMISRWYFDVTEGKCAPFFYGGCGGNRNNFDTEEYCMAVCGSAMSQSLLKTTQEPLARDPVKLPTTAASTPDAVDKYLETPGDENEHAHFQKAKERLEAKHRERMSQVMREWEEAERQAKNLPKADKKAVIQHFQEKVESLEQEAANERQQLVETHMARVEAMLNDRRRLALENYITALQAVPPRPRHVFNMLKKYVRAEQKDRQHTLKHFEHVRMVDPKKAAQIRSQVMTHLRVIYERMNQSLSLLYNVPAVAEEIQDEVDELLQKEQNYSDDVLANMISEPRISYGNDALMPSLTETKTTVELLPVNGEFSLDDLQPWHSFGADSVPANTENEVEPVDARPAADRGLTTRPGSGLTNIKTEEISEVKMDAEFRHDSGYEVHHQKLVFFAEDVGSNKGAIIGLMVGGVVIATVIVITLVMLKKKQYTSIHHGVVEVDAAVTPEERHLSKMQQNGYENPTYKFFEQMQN

Row | inhibition [1] | IC50 [2] | IC50 [3] | Ratio IC50 [4] | Compound | Activity [5] | inhibition at 10 µM [6] | inhibition at 10 µM [7]
1 | 50.1 to 71.5% | 15.2 µM | 7.59 µM | 2 | CCCCCCC1OC(=O)c2cc(N3N=C(C)CC3=O)ccc21 (stereo unspecified) | 0.85 µMequiv/µM | – | –
2 | 50.1 to 71.5% | 19.3 µM | 12.9 µM | 1.5 | CCCCCC1OC(=O)c2cc(N3N=C(C)CC3=O)ccc21 (stereo unspecified) | 0.62 µMequiv/µM | – | –
3 | 39% | – | – | – | COc1cc(/C=C/C(=O)CC(=O)/C=C/c2ccc(O)c(OC)c2)ccc1O | – | – | –
4 | 50.1 to 71.5% | – | – | – | CCCCC1OC(=O)c2cc(N3N=C(C)CC3=O)ccc21 (stereo unspecified) | 1.03 µMequiv/µM | – | –
5 | inactive | – | – | – | CCCCCCCC1OC(=O)c2cc(-n3nc(C(F)(F)F)cc3O)ccc21 (stereo unspecified) | 2.21 µMequiv/µM | – | –
6 | 71.5% | – | – | – | CCCCCCCC1OC(=O)c2cc(N3N=C(C)CC3=O)ccc21 (stereo unspecified) | 1.18 µMequiv/µM | – | –
7 | inactive | – | – | – | CCCCCC1OC(=O)c2cc(-n3nc(C(F)(F)F)cc3O)ccc21 (stereo unspecified) | 2.37 µMequiv/µM | – | –
8 | 20.1% | – | – | – | CC1=NN(c2ccccc2)C(=O)C1 [EDARAVONE] | 0.72 µMequiv/µM | 7.29% | < 5%
9 | inactive | – | – | – | CCCCCCC1OC(=O)c2cc(-n3nc(C(F)(F)F)cc3O)ccc21 (stereo unspecified) | 2.28 µMequiv/µM | – | –
10 | 50.1 to 71.5% | – | – | – | CCCCC1OC(=O)c2cc(-n3nc(C(F)(F)F)cc3O)ccc21 (stereo unspecified) | 2.22 µMequiv/µM | – | –

Row | Compound | inhibition [1] | IC50 [2] | IC50 [3] | Ratio IC50 [4] | Activity [5] | inhibition at 10 µM [6] | inhibition at 10 µM [7]
11 | CCCCC1OC(=O)c2ccccc21 (racemic) [RAC-3-N-BUTYLPHTHALIDE] | 1.2% | – | – | – | 0.21 µMequiv/µM | 18.2% | 11.2%
